Results as given in patent US10597388B2, “Pyridazinone herbicides” (FMC CORPORATION, priority 2014, dated 2020).

Experiments:
Assay in all cases: Test D controlled growth environment herbicide test, pre- and postemergence
Assay type in all cases: in vivo
[1] = system: Russian thistle (Salsola kali)
How it was run: (§1)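 Species sown in silt loam and sprayed preemergence, or grown in peat-based medium to 2–18 cm (1- to 4-leaf stage) and sprayed postemergence, with compounds in non-phytotoxic solvent plus surfactant. Visual injury scored versus controls after 14–21 d in a controlled environment, 0 (no effect) to 100 (complete control).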

[2] = system: barley, winter (winter barley, Hordeum vulgare)
How it was run: as §1

[3] = system: bromegrass, downy (downy bromegrass, Bromus tectorum)
How it was run: as §1

[4] = system: chickweed (common chickweed, Stellaria media)
How it was run: as §1

[5] = system: deadnettle (henbit deadnettle, Lamium amplexicaule)
How it was run: as §1

[6] = system: field poppy (Papaver rhoeas)
How it was run: as §1

[7] = system: galium (catchweed bedstraw, Galium aparine)
How it was run: as §1

[8] = system: kochia (Kochia scoparia)
How it was run: as §1

[9] = system: lambsquarters (Chenopodium album)
How it was run: as §1

[10] = system: mustard, wild (wild mustard, Sinapis arvensis)
How it was run: as §1

[11] = system: speedwell (bird's-eye speedwell, Veronica persica)
How it was run: as §1

[12] = system: wheat, winter (winter wheat, Triticum aestivum)
How it was run: as §1

[13] = system: windgrass (Apera spica-venti)
How it was run: as §1

[14] = Postemergence, 31 g ai/ha, scale 0 to 100 (0 no effect, 100 complete control)
[15] = Postemergence, 125 g ai/ha, visual rating on scale 0 (no effect) to 100 (complete control), 14 to 21 d
[16] = Postemergence, 250 g ai/ha, scale 0 to 100 (0 no effect, 100 complete control)
[17] = Preemergence, 125 g ai/ha, scale 0 to 100 (0 no effect, 100 complete control)
[18] = Preemergence, 250 g ai/ha, scale 0 to 100 (0 no effect, 100 complete control)
[19] = postemergence, 62 g ai/ha, scale 0 to 100, 0 no effect, 100 complete control
[20] = Preemergence, 62 g ai/ha, scale 0 to 100 (0 no effect, 100 complete control)

## CC(=O)Oc1c(C)nn(C)c(=O)c1-c1ccc(F)c2ccccc12 [Compound 90]
[1]; [14]
  Russian Thistle plant response rating: 30
[1]; [15]
  Plant response rating, Russian Thistle: 75
[1]; [16]
  Plant response rating, Russian Thistle: 90
[1]; Preemergence, 31 g ai/ha
  Plant response rating (scale of 0 to 100), Russian Thistle: 10
[1]; Preemergence, 62 g ai/ha
  Plant response rating (scale of 0 to 100), Russian Thistle: 15
[1]; [17]
  Plant response rating, Russian Thistle: 35
[1]; [18]
  Plant response rating, Russian Thistle: 60
[1]; [19]
  Plant response rating, Russian Thistle: 75
[2]; [14]
  Barley, Winter plant response rating: 0
[2]; [15]
  Plant response rating, Barley, Winter: 25
[2]; [16]
  Plant response rating, Barley, Winter: 35
[2]; Preemergence, 31 g ai/ha
  Plant response rating (scale of 0 to 100), Barley, Winter: 0
[2]; [20]
  Plant response rating, Barley, Winter: 0
[2]; [17]
  Plant response rating, Barley, Winter: 15
[2]; [18]
  Plant response rating, Barley, Winter: 30
[2]; [19]
  Plant response rating, Barley, Winter: 15
[3]; [14]
  Bromegrass, Downy plant response rating: 20
[3]; [15]
  Plant response rating, Bromegrass, Downy: 40
[3]; [16]
  Plant response rating, Bromegrass, Downy: 55
[3]; Preemergence, 31 g ai/ha
  Plant response rating (scale of 0 to 100), Bromegrass, Downy: 15
[3]; [20]
  Plant response rating, Bromegrass, Downy: 20
[3]; [17]
  Plant response rating, Bromegrass, Downy: 55
[3]; [18]
  Plant response rating, Bromegrass, Downy: 95
[3]; [19]
  Plant response rating, Bromegrass, Downy: 30
[4]; [14]
  Chickweed plant response rating: 80
[4]; [15]
  Plant response rating, Chickweed: 98
[4]; [16]
  Plant response rating, Chickweed: 100
[4]; Preemergence, 31 g ai/ha
  Plant response rating (scale of 0 to 100), Chickweed: 100
[4]; [17]
  Plant response rating, Chickweed: 100
[4]; [18]
  Plant response rating, Chickweed: 100
[4]; [19]
  Plant response rating, Chickweed: 90
[5]; [14]
  Deadnettle plant response rating: 70
[5]; [15]
  Plant response rating, Deadnettle: 100
[5]; [16]
  Plant response rating, Deadnettle: 100
[5]; Preemergence, 31 g ai/ha
  Plant response rating (scale of 0 to 100), Deadnettle: 15
[5]; Preemergence, 62 g ai/ha
  Plant response rating (scale of 0 to 100), Deadnettle: 70
[5]; [17]
  Plant response rating, Deadnettle: 90
[5]; [18]
  Plant response rating, Deadnettle: 98
[5]; [19]
  Plant response rating, Deadnettle: 80
[6]; [14]
  Field Poppy plant response rating: 65
[6]; [15]
  Plant response rating, Field Poppy: 75
[6]; [16]
  Plant response rating, Field Poppy: 90
[6]; Preemergence, 31 g ai/ha
  Plant response rating (scale of 0 to 100), Field Poppy: 15
[6]; Preemergence, 62 g ai/ha
  Plant response rating (scale of 0 to 100), Field Poppy: 100
[6]; [17]
  Plant response rating, Field Poppy: 100
[6]; [18]
  Plant response rating, Field Poppy: 100
[6]; [19]
  Plant response rating, Field Poppy: 70
[7]; [14]
  Galium plant response rating: 98
[7]; [15]
  Plant response rating, Galium: 100
[7]; [16]
  Plant response rating, Galium: 100
[7]; Preemergence, 31 g ai/ha
  Plant response rating (scale of 0 to 100), Galium: 75
[7]; Preemergence, 62 g ai/ha
  Plant response rating (scale of 0 to 100), Galium: 75
[7]; [17]
  Plant response rating, Galium: 85
[7]; [18]
  Plant response rating, Galium: 95
[7]; [19]
  Plant response rating, Galium: 100
[8]; [14]
  Kochia plant response rating: 85
[8]; [15]
  Plant response rating, Kochia: 100
[8]; [16]
  Plant response rating, Kochia: 100
[8]; Preemergence, 31 g ai/ha
  Plant response rating (scale of 0 to 100), Kochia: 75
[8]; Preemergence, 62 g ai/ha
  Plant response rating (scale of 0 to 100), Kochia: 65
[8]; [17]
  Plant response rating, Kochia: 90
[8]; [18]
  Plant response rating, Kochia: 80
[8]; [19]
  Plant response rating, Kochia: 100
[9]; [14]
  Lambsquarters plant response rating: 90
[9]; [15]
  Plant response rating, Lambsquarters: 100
[9]; [16]
  Plant response rating, Lambsquarters: 100
[9]; Preemergence, 31 g ai/ha
  Plant response rating (scale of 0 to 100), Lambsquarters: 90
[9]; Preemergence, 62 g ai/ha
  Plant response rating (scale of 0 to 100), Lambsquarters: 98
[9]; [17]
  Plant response rating, Lambsquarters: 85
[9]; [18]
  Plant response rating, Lambsquarters: 100
[9]; [19]
  Plant response rating, Lambsquarters: 90
[10]; [14]
  Mustard, Wild plant response rating: 80
[10]; [15]
  Plant response rating, Mustard, Wild: 100
[10]; [16]
  Plant response rating, Mustard, Wild: 100
[10]; Preemergence, 31 g ai/ha
  Plant response rating (scale of 0 to 100), Mustard, Wild: 35
[10]; Preemergence, 62 g ai/ha
  Plant response rating (scale of 0 to 100), Mustard, Wild: 98
[10]; [17]
  Plant response rating, Mustard, Wild: 100
[10]; [18]
  Plant response rating, Mustard, Wild: 90
[10]; [19]
  Plant response rating, Mustard, Wild: 95
[11]; [14]
  Speedwell plant response rating: 100
[11]; [15]
  Plant response rating, Speedwell: 100
[11]; [16]
  Plant response rating, Speedwell: 100
[11]; Preemergence, 31 g ai/ha
  Plant response rating (scale of 0 to 100), Speedwell: 100
[11]; Preemergence, 62 g ai/ha
  Plant response rating (scale of 0 to 100), Speedwell: 100
[11]; [17]
  Plant response rating, Speedwell: 100
[11]; [18]
  Plant response rating, Speedwell: 100
[11]; [19]
  Plant response rating, Speedwell: 100
[12]; [14]
  Wheat, Winter plant response rating: 20
[12]; [15]
  Plant response rating, Wheat, Winter: 40
[12]; [16]
  Plant response rating, Wheat, Winter: 40
[12]; Preemergence, 31 g ai/ha
  Plant response rating (scale of 0 to 100), Wheat, Winter: 0
[12]; Preemergence, 62 g ai/ha
  Plant response rating (scale of 0 to 100), Wheat, Winter: 10
[12]; [17]
  Plant response rating, Wheat, Winter: 25
[12]; [18]
  Plant response rating, Wheat, Winter: 50
[12]; [19]
  Plant response rating, Wheat, Winter: 35
[13]; [14]
  Windgrass plant response rating: 30
[13]; [15]
  Plant response rating, Windgrass: 70
[13]; [16]
  Plant response rating, Windgrass: 90
[13]; Preemergence, 31 g ai/ha
  Plant response rating (scale of 0 to 100), Windgrass: 50
[13]; Preemergence, 62 g ai/ha
  Plant response rating (scale of 0 to 100), Windgrass: 65
[13]; [17]
  Plant response rating, Windgrass: 80
[13]; [18]
  Plant response rating, Windgrass: 98
[13]; [19]
  Plant response rating, Windgrass: 50
